Counter-ions that a name gives are not always drawn.
Biological target: T1, IRAK-4 enzyme (Homo sapiens, UniProt Q9NWZ3)
T1 construct: purchased Millipore, USA
T1 sequence (Q9NWZ3 1-460): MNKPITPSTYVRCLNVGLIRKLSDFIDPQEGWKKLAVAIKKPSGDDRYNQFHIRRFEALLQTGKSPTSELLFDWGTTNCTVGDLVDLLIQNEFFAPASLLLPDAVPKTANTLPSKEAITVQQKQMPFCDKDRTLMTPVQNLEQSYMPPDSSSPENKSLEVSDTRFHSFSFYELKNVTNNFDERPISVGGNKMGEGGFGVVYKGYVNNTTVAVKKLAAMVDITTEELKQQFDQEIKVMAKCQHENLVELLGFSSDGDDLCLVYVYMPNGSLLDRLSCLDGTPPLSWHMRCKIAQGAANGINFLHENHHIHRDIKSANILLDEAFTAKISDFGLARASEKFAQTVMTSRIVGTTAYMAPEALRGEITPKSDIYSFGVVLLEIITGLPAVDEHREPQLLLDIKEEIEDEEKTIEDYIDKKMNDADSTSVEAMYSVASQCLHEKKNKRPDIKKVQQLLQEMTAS
Assay: IRAK-4 Biochemical Assay (TR-FRET)
Conditions: recombinant IRAK-4 kinase, 20 μM ATP; for inhibition at 0.1 µM: 0.1 μM compound; for inhibition at 1 µM: 1 μM compound
Experimental: Compounds were tested for their potential to inhibit IRAK-4 enzyme in a TR-FRET assay using recombinant IRAK-4 kinase from Millipore, USA. The assay buffer was 50 mM Tris-HCl pH 7.5, 20 mM MgCl2, 1 mM EGTA, 2 mM DTT, 3 mM MnCl2 and 0.01% Tween 20.5 ng of IRAK-4 kinase was used for the assay. After pre-incubation of enzyme with test compound for 30 minutes at room temperature, a substrate mixture containing 100 nM Biotin Histone H3 (Millipore, USA) and 20 μM ATP (Sigma, USA) was added and the reaction was incubated for 30 min. Post incubation, the reaction was stopped by the addition of stop mix containing 40 mM EDTA, 1 nM of Europium-Anti-Phospho-Histone H3 (Ser10) antibody (Perkin Elmer, USA) and 20 nM SureLight Allophycocyanin-Streptavidin (Perkin Elmer, USA). The fluorescence emission at 615 nm and 665 nm were measured at an excitation of 340 nm and the percent inhibition was estimated from the ratio of the fluorescence intensities [(F665/F615)×10000].
The compounds of the present invention were screened in the above mentioned assay and the percent inhibition data is summarized in the Table 1.

| Compound | inhibition at 0.1 µM [%] | inhibition at 1 µM [%] |
| --- | --- | --- |
| Cc1cc(-c2nc(C(=O)Nc3cc4cnn(CCCN5CCOCC5)c4cc3N3CCC(O)CC3)co2)ccn1 [Example 5, N-(6-(4-hydroxypiperidin-1-yl)-1-(3-morpholinopropyl)-1H-indazol-5-yl)-2-(2-methylpyridin-4-yl)oxazole-4-carboxamide] | 94 | 99 |
| Cc1cc(-c2nc(C(=O)Nc3cc4cn(C)nc4nc3N3CCCCC3)co2)ccn1 [Example 13, N-(2-methyl-6-(piperidin-1-yl)-2H-pyrazolo[3,4-b]pyridin-5-yl)-2-(2-methylpyridin-4-yl)oxazole-4-carboxamide hydrochloride] | 98 | 99 |
| Cn1ncc2cc(NC(=O)c3coc(-c4cccnc4N)n3)c(N3CCC(O)CC3)cc21 [Example 1, 2-(2-aminopyridin-3-yl)-N-(6-(4-hydroxypiperidin-1-yl)-1-methyl-1H-indazol-5-yl)oxazole-4-carboxamide hydrochloride] | 96 | 97 |
| Cc1nn(C)c2cc(N3CCC(CO)CC3)c(NC(=O)c3cnn4cccnc34)cc12 [Example 8, N-(6-(4-(hydroxymethyl)piperidin-1-yl)-1,3-dimethyl-1H-indazol-5-yl)pyrazolo[1,5-a]pyrimidine-3-carboxamide hydrochloride] | 43 | 91 |
| Cc1nn(C)c2cc(N3CCC(COCC4CC4)CC3)c(NC(=O)c3coc(-c4ccnc(N)c4)n3)cc12 [Example 36, 2-(2-aminopyridin-4-yl)-N-(6-(4-((cyclopropylmethoxy)methyl)piperidin-1-yl)-1,3-dimethyl-1H-indazol-5-yl)oxazole-4-carboxamide] | 81 | 85 |
| Cn1cc2cc(NC(=O)c3coc(N4CC[C@H](O)C4)n3)c(N3CCCCC3)nc2n1 [Example 18, (S)-2-(3-hydroxypyrrolidin-1-yl)-N-(2-methyl-6-(piperidin-1-yl)-2H-pyrazolo[3,4-b]pyridin-5-yl)oxazole-4-carboxamide] |  | 93 |
| Cc1cc(-c2nc(C(=O)Nc3cc4cnn(C)c4nc3N3CC[C@H](O)C3)co2)ccn1 [Example 23, (S)—N-(6-(3-hydroxypyrrolidin-1-yl)-1-methyl-1H-pyrazolo[3,4-b]pyridin-5-yl)-2-(2-methylpyridin-4-yl)oxazole-4-carboxamide] |  | 33 |
| Cc1cc(-c2nc(C(=O)Nc3cc4cn(C)nc4nc3N3CC[C@H](O)C3)co2)ccn1 [Example 21, (S)—N-(6-(3-hydroxypyrrolidin-1-yl)-2-methyl-2H-pyrazolo[3,4-b]pyridin-5-yl)-2-(2-methylpyridin-4-yl)oxazole-4-carboxamide] |  | 89 |
| Cc1cc(-c2nc(C(=O)Nc3cc4cnn(CCN5CCOCC5)c4cc3N3CCC(O)CC3)co2)ccn1 [Example 3, N-(6-(4-hydroxypiperidin-1-yl)-1-(2-morpholinoethyl)-1H-indazol-5-yl)-2-(2-methylpyridin-4-yl)oxazole-4-carboxamide] | 97 | 100 |
| Cn1cc2cc(NC(=O)c3cccc(N4CC[C@H](O)C4)n3)c(N3CCCCC3)nc2n1 [Example 14, (S)-6-(3-hydroxypyrrolidin-1-yl)-N-(2-methyl-6-(piperidin-1-yl)-2H-pyrazolo[3,4-b]pyridin-5-yl)picolinamide] | 57 | 94 |
| O=C(Nc1cc2cnn(C3CCNCC3)c2cc1C1CC1)c1cccc(N2CCC(O)C2)n1 (stereo not drawn) [Example 32, N-(6-cyclopropyl-1-(piperidin-4-yl)-1H-indazol-5-yl)-6-(3-hydroxypyrrolidin-1-yl)picolinamide hydrochloride] | 19 | 80 |
| Cn1ncc2cc(NC(=O)c3cccc(N4CCC(O)C4)n3)c(N3CCCCC3)cc21 (stereo not drawn) [Example 33, 6-(3-hydroxypyrrolidin-1-yl)-N-(1-methy-6-(piperidin-1-yl)-1H-indazol-5-yl)picolinamide] | 43 | 81 |

Continued, values first:

| inhibition at 0.1 µM [%] | inhibition at 1 µM [%] | Compound |
| --- | --- | --- |
| 79 | 96 | Cn1cc2cc(NC(=O)c3ccnc(N4CCC(O)C4)n3)c(N3CCCCC3)cc2n1 (stereo not drawn) [Example 63, 2-(3-hydroxypyrrolidin-1-yl)-N-(2-methyl-6-(piperidin-1-yl)-2H-indazol-5-yl)pyrimidine-4-carboxamide] |
| 7 | 9 | Cn1cc2cc(NC(=O)c3cc(N4CCC(O)C4)ccn3)c(N3CCCCC3)cc2n1 (stereo not drawn) [Example 69, 4-(3-hydroxypyrrolidin-1-yl)-N-(2-methyl-6-(piperidin-1-yl)-2H-indazol-5-yl)picolinamide] |
| 73 | 97 | Cc1ccc(C(=O)Nc2cc3cn(C)nc3cc2N2CCCCC2)nc1N1CCC(O)CC1 [Example 60, 6-(4-hydroxypiperidin-1-yl)-5-methyl-N-(2-methyl-6-(piperidin-1-yl)-2H-indazol-5-yl)picolinamide] |
| 98 | 97 | Cn1cc2cc(NC(=O)c3cccc(-c4ccc(N)nc4)n3)c(N3CCCCC3)cc2n1 [Example 44, 6′-amino-N-(2-methyl-6-(piperidin-1-yl)-2H-indazol-5-yl)-[2,3′-bipyridine]-6-carboxamide] |
| 77 | 95 | Cn1cc2cc(NC(=O)c3cccc(-c4ccnc(N)n4)n3)c(C3CC3)cc2n1 [Example 47, 6-(2-aminopyrimidin-4-yl)-N-(6-cyclopropyl-2-methyl-2H-indazol-5-yl)picolinamide] |
| 74 | 91 | Cc1ccc(C(=O)Nc2cc3cn(C)nc3cc2N2CCCCC2)nc1N1CCC(O)C1 (stereo not drawn) [Example 59, 6-(3-hydroxypyrrolidin-1-yl)-5-methyl-N-(2-methyl-6-(piperidin-1-yl)-2H-indazol-5-yl)picolinamide] |
| 9 | 21 | COc1ccc(C(=O)Nc2cc3cn(C)nc3cc2N2CCCCC2)nc1N1CCC(O)C1 (stereo not drawn) [Example 62, 6-(3-hydroxypyrrolidin-1-yl)-5-methoxy-N-(2-methyl-6-(piperidin-1-yl)-2H-indazol-5-yl)picolinamide] |
| 93 | 96 | Cn1cc2cc(NC(=O)c3cccc(-c4cccc(N)n4)n3)c(N3CCCCC3)cc2n1 [Example 46, 6′-amino-N-(2-methyl-6-(piperidin-1-yl)-2H-indazol-5-yl)-[2,2′-bipyridine]-6-carboxamide] |
| 96 | 98 | Cn1cc2cc(NC(=O)c3cccc(-c4ccc(N)nc4)n3)c(C3CC3)cc2n1 [Example 48, 6′-amino-N-(6-cyclopropyl-2-methyl-2H-indazol-5-yl)-[2,3′-bipyridine]-6-carboxamide] |
| 14 | 75 | Cc1nn(C)c2cc(N3CCC(CO)CC3)c(NC(=O)c3cccc(-c4ccc(N)nc4)n3)cc12 [Example 37, 6′-amino-N-(6-(4-(hydroxymethyl)piperidin-1-yl)-1,3-dimethyl-1H-indazol-5-yl)-[2,3′-bipyridine]-6-carboxamide hydrochloride] |
| 23 | 75 | Cn1cc2cc(NC(=O)c3cncc(N4CCC(O)C4)n3)c(C3CC3)cc2n1 (stereo not drawn) [Example 66, N-(6-cyclopropyl-2-methyl-2H-indazol-5-yl)-6-(3-hydroxypyrrolidin-1-yl)pyrazine-2-carboxamide hydrochloride] |
| 57 | 92 | Cn1cc2cc(NC(=O)c3cccc(-c4cccc(N)n4)n3)c(C3CC3)cc2n1 [Example 51, 6′-amino-N-(6-cyclopropyl-2-methyl-2H-indazol-5-yl)[2,2′-bipyridine]-6-carboxamide hydrochloride] |
| 92 | 95 | O=C(Nc1cc2cn(CCN3CCOCC3)nc2cc1C1CC1)c1cccc(N2CCC(O)C2)n1 (stereo not drawn) [Example 55, N-(6-cyclopropyl-2-(2-morpholinoethyl)-2H-indazol-5-yl)-6-(3-hydroxypyrrolidin-1-yl)picolinamide] |
| 10 | 51 | Cn1cc2cc(NC(=O)c3ccc(N4CCC(O)C4)cn3)c(N3CCCCC3)cc2n1 (stereo not drawn) [Example 73, 5-(3-hydroxypyrrolidin-1-yl)-N-(2-methyl-6-(piperidin-1-yl)-2H-indazol-5-yl)picolinamide] |
| 96 | 97 | O=C(Nc1cc2cn(CCN3CCOCC3)nc2cc1N1CCCCC1)c1cccc(N2CCC(O)C2)n1 (stereo not drawn) [Example 64, 6-(3-hydroxypyrrolidin-1-yl)-N-(2-(2-morpholinoethyl)-6-(piperidin-1-yl)-2H-indazol-5-yl)picolinamide] |

Reference: US20180201609A1 (AURIGENE DISCOVERY TECHNOLOGIES LIMITED, priority 2015, published 2018)
